Test results reported in patent publication US20250170266A1 (ZYMEWORKS BC INC., priority 2022, published 2025).
Where two headings read alike, the source gives them in different places.

Key:
Type in all cases: cell-based
[1] = target: T1, hTLR7 (Homo sapiens, UniProt Q9NYK1); assay: Reporter Gene Assay (RGA), HEK-Blue hTLR7 reporter cells, SEAP readout; conditions: overnight incubation, SEAP absorbance 620 nm
T1 construct: host or cells: HEK-Blue hTLR7 reporter cells (HEK293-derived, own knowledge)
T1 sequence (Q9NYK1 27-1049): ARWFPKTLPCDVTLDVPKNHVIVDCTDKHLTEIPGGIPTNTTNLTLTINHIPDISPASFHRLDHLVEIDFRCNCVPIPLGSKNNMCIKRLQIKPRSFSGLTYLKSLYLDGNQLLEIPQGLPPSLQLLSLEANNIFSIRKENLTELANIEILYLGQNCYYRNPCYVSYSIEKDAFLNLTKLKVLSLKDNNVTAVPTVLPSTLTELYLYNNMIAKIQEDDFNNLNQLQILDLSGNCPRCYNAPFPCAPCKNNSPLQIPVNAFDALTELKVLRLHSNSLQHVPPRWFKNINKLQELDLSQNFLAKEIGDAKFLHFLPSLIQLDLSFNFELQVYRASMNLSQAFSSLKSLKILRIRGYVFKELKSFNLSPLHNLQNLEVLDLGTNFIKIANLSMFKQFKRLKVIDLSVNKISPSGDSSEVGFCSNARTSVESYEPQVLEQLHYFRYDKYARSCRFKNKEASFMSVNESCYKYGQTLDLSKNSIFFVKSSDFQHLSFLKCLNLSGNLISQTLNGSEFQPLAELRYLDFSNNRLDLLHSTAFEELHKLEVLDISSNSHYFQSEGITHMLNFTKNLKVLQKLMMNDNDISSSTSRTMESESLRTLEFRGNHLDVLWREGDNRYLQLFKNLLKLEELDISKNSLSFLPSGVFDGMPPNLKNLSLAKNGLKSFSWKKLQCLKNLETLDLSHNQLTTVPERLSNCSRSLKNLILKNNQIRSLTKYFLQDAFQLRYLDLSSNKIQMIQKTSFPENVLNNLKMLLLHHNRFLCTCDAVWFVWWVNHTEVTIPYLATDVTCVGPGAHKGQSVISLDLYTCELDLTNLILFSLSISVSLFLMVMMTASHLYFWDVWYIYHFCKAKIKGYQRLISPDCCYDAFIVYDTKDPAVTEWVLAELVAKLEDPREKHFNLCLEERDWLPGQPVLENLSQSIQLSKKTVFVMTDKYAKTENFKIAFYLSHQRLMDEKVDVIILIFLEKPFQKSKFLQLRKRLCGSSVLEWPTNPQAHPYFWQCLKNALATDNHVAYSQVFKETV
Description: (§1) 1.5×10^4 HEK-Blue™ hTLR7 (Invivogen, San Diego, CA) or HEK-Blue™ mTLR7 (Invivogen, San Diego, CA) reporter cells were treated with a titration series of test compound (4-fold titration from […], 11 points). Compounds were initially diluted to 1 mM in DMSO and subsequently serial-diluted in assay media (HEK-Blue™ Detection; Invivogen, San Diego, CA). Cells with test compound were incubated overnight at 37° C.+5% CO2, and the amount of secreted embryonic alkaline phosphatase (SEAP) was determined by measuring absorbance (620 nm) using a Synergy™ H1 microplate reader.
(§2) Each assay included a positive control compound (referred to herein as “benchmark,” see, e.g., TABLE 3 below, and taken from International Patent Publication No. WO2017/072662, structure shown below) and a negative control (growth medium). […] The structure of the benchmark compound from International Patent Publication No. WO 2017/072662 is as follows: […]

[2] = target: T2, mTLR7 (Mus musculus, UniProt P58681); assay: Reporter Gene Assay (RGA), HEK-Blue mTLR7 reporter cells, SEAP readout; conditions: overnight incubation, SEAP absorbance 620 nm
T2 construct: host or cells: HEK-Blue mTLR7 reporter cells (HEK293-derived, own knowledge)
T2 sequence (P58681 27-1050): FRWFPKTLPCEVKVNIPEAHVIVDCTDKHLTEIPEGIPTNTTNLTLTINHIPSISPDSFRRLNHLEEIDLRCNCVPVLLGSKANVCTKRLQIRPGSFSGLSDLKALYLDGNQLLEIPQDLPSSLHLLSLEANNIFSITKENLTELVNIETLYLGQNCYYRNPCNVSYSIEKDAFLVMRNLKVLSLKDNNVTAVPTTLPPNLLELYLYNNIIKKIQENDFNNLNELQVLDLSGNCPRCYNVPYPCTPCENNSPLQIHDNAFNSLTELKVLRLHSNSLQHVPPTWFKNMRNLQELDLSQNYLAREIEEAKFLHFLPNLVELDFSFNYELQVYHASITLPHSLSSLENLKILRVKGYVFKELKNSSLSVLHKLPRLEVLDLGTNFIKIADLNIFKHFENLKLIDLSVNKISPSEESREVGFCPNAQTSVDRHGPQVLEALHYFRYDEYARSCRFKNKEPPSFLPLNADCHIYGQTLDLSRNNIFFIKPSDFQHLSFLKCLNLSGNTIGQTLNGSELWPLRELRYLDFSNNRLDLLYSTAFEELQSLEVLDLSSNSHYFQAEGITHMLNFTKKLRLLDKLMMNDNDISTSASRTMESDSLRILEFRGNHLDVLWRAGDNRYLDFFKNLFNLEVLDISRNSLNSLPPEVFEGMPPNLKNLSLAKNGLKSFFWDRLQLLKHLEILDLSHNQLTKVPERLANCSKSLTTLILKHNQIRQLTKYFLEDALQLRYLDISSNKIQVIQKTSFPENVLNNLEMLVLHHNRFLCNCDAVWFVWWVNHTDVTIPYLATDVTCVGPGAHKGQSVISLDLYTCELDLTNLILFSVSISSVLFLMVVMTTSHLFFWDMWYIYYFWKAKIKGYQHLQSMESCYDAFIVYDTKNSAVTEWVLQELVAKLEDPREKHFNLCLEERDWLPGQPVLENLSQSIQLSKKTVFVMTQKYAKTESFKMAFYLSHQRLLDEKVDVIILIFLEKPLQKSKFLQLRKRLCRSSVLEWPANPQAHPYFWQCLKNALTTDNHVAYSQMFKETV
Description: as §1, §2

[3] = test system: Human peripheral blood mononuclear cells (PBMCs); assay: Human PBMC Assay, cytokine release (HTRF); conditions: PBMC, 24 hours
From the text: Human peripheral blood mononuclear cells (PBMCs) were isolated from fresh Leukopak using magnetic separation. Briefly, erythrocytes and granulocytes were magnetically labeled with Erythrocyte Depletion MicroBeads (Miltenyi Biotec) and Granulocyte Depletion MicroBeads (Miltenyi Biotec), respectively. The cell suspension was loaded onto a Multi-24 Column Block (Miltenyi Biotec) and placed in the magnetic field of a MultiMACS Cell24 Separator Plus (Miltenyi Biotec). The unlabelled PBMCs were collected in the run through. PBMCs were resuspended in CryoStor® CS10 ([…]) and frozen. On the day before the assay, PBMCs were thawed in warm assay buffer (RPMI+10% FBS) and resuspended in assay buffer+10 ng/ml hIL3 (R&D Systems). Cells were rested at 37° C.+5% CO2 overnight. The following day, cells were spun down and resuspended in fresh assay buffer. 300,000 cells were added to each well of plates containing test compound. For test compound preparation, each compound was initially diluted to 1 mM in DMSO and further diluted in assay buffer. A 4-fold 11-point titration starting from 15 μM was performed. Cells were incubated with test compound at 37° C.+5% CO2 for 24 hours before supernatant was harvested. Human interleukin 6 (hIL6), human tumor necrosis factor alpha (hTNFα), and human interferon alpha (hIFNα) were quantified in the supernatant using homogeneous time resolved fluorescence (Cisbio).
as §2

[4] = hIFNα in supernatant, EC50 values approximated and divided into groups, read-out: PBMC IFNa EC50

| SMILES | EC50 [1] [nM] | EC50 [2] [nM] | EC50 [3, 4] [nM] | EC50 ([3]; hIL6 in supernatant, read-out: PBMC IL6 EC50) [nM] |
| --- | --- | --- | --- | --- |
| CCOc1nc(N)c2nc(O)n(Cc3ccc(CNC/C=C/CN)cc3OC)c2n1 [Compound 126, (E)-6-amino-9-(4-(((4-aminobut-2-en-1-yl)amino)methyl)-2-methoxybenzyl)-2-ethoxy-9H-purin-8-ol] | 33 | 659 | > 10 | – |
| CCCCOc1nc(N)c2nc(O)n(Cc3ccc(CCN4CCC5(CCNCC5)CC4)cc3OC)c2n1 [Compound 177, 9-(4-(2-(3,9-diazaspiro[5.5]undecan-3-yl)ethyl)-2-methoxybenzyl)-6-amino-2-butoxy-9H-purin-8-ol] | 411 | 15500 | > 10 | – |
| CCOc1nc(N)c2nc(O)n(Cc3ccc(CNCC(O)CN4CCOCC4)cc3OC)c2n1 (stereo not drawn) [Compound 136, 6-amino-2-ethoxy-9-(4-(((2-hydroxy-3-morpholinopropyl)amino)methyl)-2-methoxybenzyl)-9H-purin-8-ol] | 223 | 1710 | > 10 | – |
| CCCCOc1nc(N)c2nc(O)n(Cc3ccc(CCNC4CCNCC4)cc3OC)c2n1 [Compound 179, 6-amino-2-butoxy-9-(2-methoxy-4-(2-(piperidin-4-ylamino)ethyl)benzyl)-9H-purin-8-ol] | 181 | 422 | > 10 | – |
| CCOc1nc(N)c2nc(O)n(Cc3ccc(CNC4CCCNC4)cc3OC)c2n1 (stereo not drawn) [Compound 127, 6-amino-2-ethoxy-9-(2-methoxy-4-((piperidin-3-ylamino)methyl)benzyl)-9H-purin-8-ol] | 175 | 1030 | > 10 | – |
| CCOc1nc(N)c2nc(O)n(Cc3ccc(CNC4CCNC4)cc3OC)c2n1 (stereo in doubt) [Compound 133, (S)-6-amino-2-ethoxy-9-(2-methoxy-4-((pyrrolidin-3-ylamino)methyl)benzyl)-9H-purin-8-ol] | 178 | 859 | > 10 | – |
| CCCCOc1nc(N)c2nc(O)n(Cc3ccc(CNCc4ccccc4)cc3OC)c2n1 [Compound 165, 6-amino-9-(4-((benzylamino)methyl)-2-methoxybenzyl)-2-butoxy-9H-purin-8-ol] | < 0.1 | < 0.1 | < 0.1 | 6990 |
| CCOc1nc(N)c2nc(O)n(Cc3ccc(CNC4CNC4)cc3OC)c2n1 [Compound 129, 6-amino-9-(4-((azetidin-3-ylamino)methyl)-2-methoxybenzyl)-2-ethoxy-9H-purin-8-ol] | 81.1 | 541 | > 10 | – |
| CCOc1nc(N)c2nc(O)n(Cc3ccc(CNC4CC5(CNC5)C4)cc3OC)c2n1 [Compound 130, 9-(4-(((2-azaspiro[3.3]heptan-6-yl)amino)methyl)-2-methoxybenzyl)-6-amino-2-ethoxy-9H-purin-8-ol] | 202 | 1270 | > 10 | – |

Continued, in another order:

| EC50 [1] [nM] | EC50 [2] [nM] | SMILES | EC50 [3, 4] [nM] | EC50 ([3]; hIL6 in supernatant, read-out: PBMC IL6 EC50) [nM] |
| --- | --- | --- | --- | --- |
| 167 | 1260 | CCOc1nc(N)c2nc(O)n(Cc3ccc(CN4CCN(C(=O)CCCCCNC(=O)CC(SC[C@@H](N)C(=O)O)C(=O)O)CC4)cc3OC)c2n1 (stereo partly drawn) [Compound 148, 2-(((S)-2-amino-2-carboxyethyl)thio)-4-((6-(4-(4-((6-amino-2-ethoxy-8-hydroxy-9H-purin-9-yl)methyl)-3-methoxybenzyl)piperazin-1-yl)-6-oxohexyl)amino)-4-oxobutanoic Acid] | > 10 | – |
| 520 | 1260 | CCOc1nc(N)c2nc(O)n(Cc3ccc(CN4CCN(C(=O)CCOCCOCCOCCNC(=O)CC(SC[C@@H](N)C(=O)O)C(=O)O)CC4)cc3OC)c2n1 (stereo partly drawn) [Compound 149, (19S)-19-amino-1-(4-(4-((6-amino-2-ethoxy-8-hydroxy-9H-purin-9-yl)methyl)-3-methoxybenzyl)piperazin-1-yl)-16-carboxy-1,14-dioxo-4,7,10-trioxa-17-thia-13-azaicosan-20-oic Acid] | > 10 | – |
| 86.1 | 676 | CCOc1nc(N)c2nc(O)n(Cc3ccc(CNCCCN4CCNCC4)cc3OC)c2n1 [Compound 131, 6-amino-2-ethoxy-9-(2-methoxy-4-(((3-(piperazin-1-yl)propyl)amino)methyl)-benzyl)-9H-purin-8-ol] | > 10 | – |
| 27 | 95.4 | CCCCCNc1nc(N)nc2ccn(Cc3ccc(CN4CCN(CCNC(=O)CC(SC[C@@H](N)C(=O)O)C(=O)O)CC4)cc3OC)c12 (stereo partly drawn) [Benchmark, reference compound] | – | – |
| 363 | 1650 | CCOc1nc(N)c2nc(O)n(Cc3ccc(CNCCN4CCNCC4)cc3OC)c2n1 [Compound 134, 6-amino-2-ethoxy-9-(2-methoxy-4-(((2-(piperazin-1-yl)ethyl)amino)methyl)-benzyl)-9H-purin-8-ol] | > 10 | – |
